Assay results as given in paper PMC9645375, “Pattern enrichment analysis for phage selection of stapled peptide ligands” (Chemical Science, 2022).
Numbered stars: 1 amine (or outer) side, 2 acyl side, 3 side chain; on linkers, the order of the positions; unused ones are H or OH. Bridge positions count the residues as written; N and C are the ends. Peptide text beside a SMILES is read from it. X1 = O=C(C[*:1])NCCCCCNC(=O)C[*:2]

Tests used:
[1] = target: interaction between SARS-CoV-2 spike RBD and ACE2 (Severe acute respiratory syndrome coronavirus 2, UniProt P0DTC2); assay: biochemical; format: binding; details: n = 3
[2] = CD measurement of helical content; format: physicochemical
[3] = target: T1, HDM2 (human double minute 2) (Homo sapiens, UniProt Q00987); assay: Fluorescence polarisation competition binding assay against FAM-ATSP-3848; details: for inhibition of FAM-ATSP-3848 binding to HDM2 (in words): fluorescence polarisation, 100 nM HDM2, 10 nM FAM-ATSP-3848
T1 construct: His-tag; made in house
T1 sequence (Q00987 whole entry): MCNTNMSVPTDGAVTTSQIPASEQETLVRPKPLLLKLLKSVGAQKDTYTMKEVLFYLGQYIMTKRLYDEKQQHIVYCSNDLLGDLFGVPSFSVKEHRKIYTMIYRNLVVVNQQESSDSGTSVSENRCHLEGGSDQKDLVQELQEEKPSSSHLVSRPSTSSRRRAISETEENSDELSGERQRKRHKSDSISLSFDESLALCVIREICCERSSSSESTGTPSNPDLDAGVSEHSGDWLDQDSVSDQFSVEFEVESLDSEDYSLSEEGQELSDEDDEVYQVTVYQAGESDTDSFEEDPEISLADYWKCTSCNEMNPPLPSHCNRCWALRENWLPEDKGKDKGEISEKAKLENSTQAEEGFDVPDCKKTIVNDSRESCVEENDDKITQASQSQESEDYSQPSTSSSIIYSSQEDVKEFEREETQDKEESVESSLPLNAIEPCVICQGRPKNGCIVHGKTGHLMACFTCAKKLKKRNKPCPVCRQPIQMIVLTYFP
Experimental: Fig. 4 Position–amino acid pattern enrichment analysis of the HDM2-R3 pool. (a) Pattern enrichment score calculation. For both sequence data (FASTQ), the abundance of each position–amino acid pattern was determined. Enrichment values were calculated as the ratio of abundance in the selected sample to that in the control sample. (b) Venn diagram showing pattern coverage (white, whole space of three-window patterns; blue, patterns found in Amp-R3 dataset; red, patterns found in HDM2-R3 dataset). (c) Scattering plot indicating the abundance of control (x-axis) and HDM2-R3 selected sample (y-axis). Red circles are patterns with log2(ratio) values greater than 8. (d) Position–amino acid patterns ranked in the top 20. (e) WebLogo depicting enriched sequences determined from enriched patterns with log2(ratio) values greater than 8. (f) Sequences and helical wheel diagrams of HDM2-p13 and HDM2-opt peptides. Highly enriched residues are coloured red. (g) Fluorescence polarisation assay for competitive inhibition. Peptides (50 nM to 50 μM) were mixed with 100 nM HDM2 and 10 nM FAM-ATSP-3848. […] Error bar represents SD (n = 3).
Competition binding assay
The peptides (50 nM–50 µM) was mixed with 100 nM of HDM2 and 10 nM of FAM-AT P S-3848 in HBS buffer (10 mM HEPES, 150 mM NaCl, pH 7.5). The fluorescence polarization was measured by ARVO MX plate […]
values of peptide inhibitors were calculated by nonlinear regression analysis using Prism (GraphPad Software).
Pull-down competition binding assay
Recombinant SARS-CoV-2 Spike RBD His Biotin Protein (R&D Systems, BT10500) at 4 µg/mL concentration in HBS buffer was incubated with 3 mg/mL of DynaBeads M-280 (ThermoFisher) for 2 hours at 4 °C. […]
After one hour incubation at room temperature, the beads were rinsed three times with HBS-T ( 2 0 0 µL/well). […] The chemiluminescent bands were detected using LuminoGraphI (ATTO) with ImageSaver6 software. From the band intensities, IC50 values of peptide inhibitors were calculated by nonlinear regression analysis using Prism (GraphPad Software).

Row | SMILES | IC50 [1] | conformational preference (in words) [2] | helical content ([2]; pH 7.5) | inhibition of FAM-ATSP-3848 binding to HDM2 (in words) [3] | IC50 ([3]; competitive inhibition FP, peptides 50 nM to 50 μM, 100 nM HDM2, 10 nM FAM-ATSP-3848, HBS buffer (10 mM HEPES, 150 mM NaCl, pH 7.5), SD, n = 3) | helical content ([2]; CD, 25% TFE, 30 µM peptide, HBS buffer (10 mM HEPES, 150 mM NaCl, pH 7.5), calculated by BeStSel web server)
1 | CC(C)C[C@@H]1NC(=O)[C@@H](NC(=O)[C@@H](N)[C@@H](C)O)CSCC(=O)NCCCCCNC(=O)CSC[C@@H](C(=O)N[C@@H](Cc2ccccc2)C(N)=O)NC(=O)[C@H](CCC(=O)O)NC(=O)[C@H](Cc2ccccc2)NC(=O)[C@H](Cc2c[nH]c3ccccc23)NC(=O)[C@H](CO)NC(=O)[C@H](CO)NC1=O [CoV-2-p2] (H-TCLSSWFECF-NH2; linker 2-9 via X1) | 12.9 ± 4.9 µM | prefer a helical conformation | 45% |  |  | 
2 | CC(C)C[C@@H]1NC(=O)[C@H](Cc2ccc(O)cc2)NC(=O)[C@H](CC(=O)O)NC(=O)[C@H](Cc2ccccc2)NC(=O)CNC(=O)[C@H](Cc2c[nH]c3ccccc23)NC(=O)[C@@H](NC(=O)[C@@H](N)[C@@H](C)O)CSCC(=O)NCCCCCNC(=O)CSC[C@@H](C(=O)N[C@@H](Cc2c[nH]c3ccccc23)C(N)=O)NC1=O [CoV-2-p5] (H-TCWGFDYLCW-NH2; linker 2-9 via X1) | 3.8 ± 3.3 µM |  | 12% |  |  | 
3 | CC(C)C[C@H](NC(=O)[C@@H]1CSCC(=O)NCCCCCNC(=O)CSC[C@H](NC(=O)[C@@H]2CCCN2)C(=O)N[C@@H](Cc2ccccc2)C(=O)N[C@@H](Cc2ccc(O)cc2)C(=O)N[C@@H](CC(=O)O)C(=O)N[C@@H](Cc2ccc(O)cc2)C(=O)N[C@@H](Cc2c[nH]c3ccccc23)C(=O)N[C@@H](CCC(N)=O)C(=O)N1)C(N)=O [HDM2-opt] (H-PCFYDYWQCL-NH2; linker 2-9 via X1) |  |  |  | exhibited effective inhibition |  | 
4 | CC(C)C[C@H](NC(=O)[C@@H]1CSCC(=O)NCCCCCNC(=O)CSC[C@H](NC(=O)[C@H](C)N)C(=O)N[C@@H](Cc2ccccc2)C(=O)N[C@@H](CC(=O)O)C(=O)N[C@@H](CCC(=O)O)C(=O)N[C@@H](Cc2ccc(O)cc2)C(=O)N[C@@H](Cc2c[nH]c3ccccc23)C(=O)N[C@@H](CCC(N)=O)C(=O)N1)C(N)=O [HDM2-p13] (H-ACFDEYWQCL-NH2; linker 2-9 via X1) |  |  |  | inhibited the high-affinity binding | 4.8 ± 0.6 µM | 43%
